Laboratory results reported in patent US6972296B2, “Carboxylic acid derivatives that inhibit the binding of integrins to their receptors” (Encysive Pharmaceuticals Inc., priority 1999, dated 2005).
Blank lines part the entries; values can stand above or below the compound they belong to.

Target: T1, α4β1 integrin (Homo sapiens, UniProt P05556+P13612)
T1 construct: endogenous in cells; host or cells: Ramos cells
Assay: Adhesion of calcein-labeled Ramos cells to CS1 (fibronectin) peptide conjugated ovalbumin
Format: cell-based
Conditions: Ramos cell adhesion to CS1 conjugated ovalbumin
Summary of the method: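 Calcein AM-labelled Ramos cells (2.5×10^5/well) with compound, up to 100 μM, added to plates coated with CS1 peptide–ovalbumin (0.5 μg/ml) and blocked with 3% BSA. Binding buffer TBS pH 7.5 with 1 mM each MgCl2, CaCl2, MnCl2; 30 min, 37 °C. After washes, adherent cells lysed and read fluorometrically; […].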

[1] = Table 5, dose required to give 50% inhibition
[2] = Table 7, dose required to give 50% inhibition

T1 sequence (P13612 34-1032): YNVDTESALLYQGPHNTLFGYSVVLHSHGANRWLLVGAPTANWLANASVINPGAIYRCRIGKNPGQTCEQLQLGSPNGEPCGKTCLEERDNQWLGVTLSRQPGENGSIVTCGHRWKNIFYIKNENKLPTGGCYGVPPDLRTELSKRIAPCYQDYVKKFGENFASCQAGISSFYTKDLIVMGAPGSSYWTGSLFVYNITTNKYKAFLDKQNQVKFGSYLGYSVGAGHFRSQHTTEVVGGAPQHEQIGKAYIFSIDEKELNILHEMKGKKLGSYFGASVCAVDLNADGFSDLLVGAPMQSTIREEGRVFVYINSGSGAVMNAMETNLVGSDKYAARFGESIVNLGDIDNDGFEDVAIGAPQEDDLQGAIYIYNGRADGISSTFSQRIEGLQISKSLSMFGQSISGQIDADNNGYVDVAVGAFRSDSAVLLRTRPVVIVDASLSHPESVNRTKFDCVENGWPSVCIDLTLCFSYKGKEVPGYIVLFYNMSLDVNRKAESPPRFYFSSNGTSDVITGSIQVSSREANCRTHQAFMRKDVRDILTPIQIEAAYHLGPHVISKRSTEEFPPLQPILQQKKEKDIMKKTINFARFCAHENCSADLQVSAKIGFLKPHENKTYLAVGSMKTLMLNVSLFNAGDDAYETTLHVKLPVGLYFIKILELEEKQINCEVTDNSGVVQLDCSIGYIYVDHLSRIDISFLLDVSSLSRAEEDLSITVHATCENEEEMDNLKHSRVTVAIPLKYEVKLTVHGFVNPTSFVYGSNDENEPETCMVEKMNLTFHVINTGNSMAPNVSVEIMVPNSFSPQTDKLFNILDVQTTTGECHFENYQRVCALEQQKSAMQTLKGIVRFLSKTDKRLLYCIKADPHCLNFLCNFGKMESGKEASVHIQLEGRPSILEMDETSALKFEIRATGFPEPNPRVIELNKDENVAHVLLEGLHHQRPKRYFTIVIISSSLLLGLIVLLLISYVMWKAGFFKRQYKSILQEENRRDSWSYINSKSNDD
T1 sequence (P05556 21-798): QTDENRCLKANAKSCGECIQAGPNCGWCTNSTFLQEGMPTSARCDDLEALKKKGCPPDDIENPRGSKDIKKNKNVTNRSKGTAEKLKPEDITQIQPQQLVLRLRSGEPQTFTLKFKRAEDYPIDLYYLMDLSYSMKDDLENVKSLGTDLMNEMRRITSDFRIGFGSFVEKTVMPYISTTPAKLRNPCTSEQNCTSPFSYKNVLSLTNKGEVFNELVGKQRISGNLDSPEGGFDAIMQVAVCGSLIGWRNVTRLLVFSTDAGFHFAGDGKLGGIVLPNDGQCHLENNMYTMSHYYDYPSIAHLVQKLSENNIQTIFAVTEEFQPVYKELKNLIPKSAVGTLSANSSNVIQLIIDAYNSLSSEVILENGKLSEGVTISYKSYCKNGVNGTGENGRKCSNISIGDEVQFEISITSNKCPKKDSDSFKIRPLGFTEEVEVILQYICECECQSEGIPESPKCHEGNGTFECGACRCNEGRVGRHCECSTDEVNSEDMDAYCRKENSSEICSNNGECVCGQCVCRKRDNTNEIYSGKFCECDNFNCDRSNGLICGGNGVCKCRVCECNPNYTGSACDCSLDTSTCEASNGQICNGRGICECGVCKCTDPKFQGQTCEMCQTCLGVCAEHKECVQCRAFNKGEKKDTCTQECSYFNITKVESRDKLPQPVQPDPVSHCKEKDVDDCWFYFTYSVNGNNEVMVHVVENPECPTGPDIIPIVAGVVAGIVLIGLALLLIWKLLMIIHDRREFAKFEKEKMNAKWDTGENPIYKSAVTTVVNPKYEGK

IC50 (Table 6, 30 minutes at 37° C.): 0.003 µM
SMILES: CCOc1cccc([C@H](CC(=O)O)NC(=O)Nc2c(O)c(C)cn(Cc3c(Cl)cccc3OC)c2=O)c1

IC50 (Table 3, 30 minutes at 37° C.): 0.003 µM
SMILES: Cc1ccc([C@H](CC(=O)O)NC(=O)Nc2c(N3CCN(C)CC3)ccn(Cc3ccccc3Cl)c2=O)cc1

IC50 (Table 4, 30 minutes at 37° C.): 2 µM
SMILES: O=C(O)C[C@@H](NC(=O)Nc1cccn(Cc2ccccc2Cl)c1=O)c1ccc2c(c1)OCO2

IC50 [1]: 0.015 µM
SMILES: Cc1ccc([C@H](CC(=O)O)NC(=O)Nc2c(O)ccn(Cc3cccc(Cl)c3)c2=O)cc1

IC50 [1]: 0.04 µM
SMILES: COc1cccc(Cn2ccc(O)c(NC(=O)N[C@@H](CC(=O)O)c3ccc(C)cc3)c2=O)c1

IC50 [2]: 0.008 µM
SMILES: O=C(O)C[C@H](NC(=O)Nc1c(O)c2c(n(Cc3ccccc3Cl)c1=O)CCC2)c1cccc(O)c1

IC50 [2]: 0.004 µM
SMILES: CCOc1cccc(Cl)c1Cn1c(C)c(CC)c(O)c(NC(=O)N[C@@H](CC(=O)O)c2ccccc2)c1=O

IC50 (Table 4, 30 minutes at 37° C.): 1 µM
SMILES: Cc1ccc([C@H](CC(=O)O)NC(=O)Nc2cccn(Cc3ccc([N+](=O)[O-])cc3)c2=O)cc1

IC50 (Table 6, 30 minutes at 37° C.): 0.003 µM
SMILES: COc1cccc(Cl)c1Cn1cc(C)c(O)c(NC(=O)N[C@@H](CC(=O)O)c2ccc(C)c(C)c2)c1=O

IC50 [1]: 0.08 µM
SMILES: COc1cc(C)c([C@H](CC(=O)O)NC(=O)Nc2c(O)ccn(Cc3ccccc3Cl)c2=O)cc1C

IC50 [2]: 0.003 µM
SMILES: CCN(CC)c1cccc([C@H](CC(=O)O)NC(=O)Nc2c(O)c3c(n(Cc4ccccc4Cl)c2=O)CCC3)c1 [(3S)-3-{[({1-[(2-chlorophenyl)methyl]-4-hydroxy-2-oxo-2,5,6,7-tetrahydro-1H-cyclopenta[b]pyridin-3-yl}amino)carbonyl]amino}-3-[3-(diethylamino)phenyl]propanoic acid]

IC50 (Table 4, 30 minutes at 37° C.): 0.8 µM
SMILES: COc1ccc([C@H](CC(=O)O)NC(=O)Nc2cccn(Cc3cccs3)c2=O)cc1

IC50 [1]: 0.3 µM
SMILES: Cc1ccc([C@H](CC(=O)O)NC(=O)Nc2c(O)ccn(Cc3cc(C(F)(F)F)cc(C(F)(F)F)c3)c2=O)cc1

IC50 [2]: 0.025 µM
SMILES: CCOc1cc([C@H](CC(=O)O)NC(=O)Nc2c(O)c3c(n(Cc4c(C)cccc4Cl)c2=O)CCC3)ccc1Cl

IC50 (Table 4, 30 minutes at 37° C.): 15 µM
SMILES: O=C(O)C[C@H](NC(=O)Nc1cccn(CCc2cccs2)c1=O)c1ccc2c(c1)OCO2

IC50 (Table 6, 30 minutes at 37° C.): 0.13 µM
SMILES: Cc1cn(Cc2ccccc2Cl)c(=O)c(NC(=O)NC(CC(=O)O)c2ccc(-c3ccccc3)cc2)c1O (centres unmarked)

IC50 (Table 3, 30 minutes at 37° C.): 0.025 µM
SMILES: O=C(O)C[C@H](NC(=O)Nc1c(O)ccn(Cc2ccccc2Cl)c1=O)c1ccc(C(F)(F)F)cc1

IC50 [2]: 0.003 µM
SMILES: CCCOc1cccc([C@H](CC(=O)O)NC(=O)Nc2c(O)c3c(n(Cc4c(Cl)cccc4OCC)c2=O)CCC3)c1 [(3S)-3-[({[1-(2-chloro-6-ethoxybenzyl)-4-hydroxy-2-oxo-2,5,6,7-tetrahydro-1H-cyclopenta[b]pyridin-3-yl]amino}carbonyl)amino]-3-(3-propoxyphenyl)propanoic acid]

IC50 [1]: 1.5 µM
SMILES: Cc1ccc([C@H](CC(=O)O)NC(=O)Nc2cc(C(F)(F)F)cn(Cc3ccccc3)c2=O)cc1

IC50 [1]: 0.02 µM
SMILES: Cc1ccc([C@H](CC(=O)O)NC(=O)Nc2c(O)c(C)cn(Cc3ccc(Cl)cc3Cl)c2=O)cc1

IC50 [2]: 0.008 µM
SMILES: O=C(O)C[C@H](NC(=O)Nc1c(O)c2c(n(Cc3ccccc3Cl)c1=O)CCC2)c1ccc2c(c1)CCC2

IC50 (Table 6, 30 minutes at 37° C.): 0.003 µM
SMILES: CCCc1cn(Cc2c(Cl)cccc2OC)c(=O)c(NC(=O)N[C@@H](CC(=O)O)c2ccc(OCC)c(OCC)c2)c1O

IC50 (Table 4, 30 minutes at 37° C.): 0.08 µM
SMILES: COc1cc([C@H](CC(=O)O)NC(=O)Nc2cccn(Cc3ccccc3Br)c2=O)cc(OC)c1OC

IC50 [2]: 0.015 µM
SMILES: CC(C)Cc1cccc([C@H](CC(=O)O)NC(=O)Nc2c(O)c3c(n(Cc4ccccc4Cl)c2=O)CCC3)c1

SMILES: CCCCOc1cccc([C@H](CC(=O)O)NC(=O)Nc2c(O)ccn(Cc3ccccc3Cl)c2=O)c1 [(3S)-3-(3-butoxyphenyl)-3-[({[1-(2-chlorobenzyl)-4-hydroxy-2-oxo-1,2-dihydropyridin-3-yl]amino}carbonyl)amino]propanoic acid]
IC50 [1]: 0.005 µM

IC50 [2]: 0.022 µM
SMILES: CCCc1cn(Cc2c(Cl)cccc2OCC)c(=O)c(NC(=O)N[C@@H](CC(=O)O)c2cccc(OC(C)C)c2)c1O

IC50 (Table 3, 30 minutes at 37° C.): 0.04 µM
IC50 (Table 4, 30 minutes at 37° C.): 0.04 µM
SMILES: O=C(O)CC(NC(=O)Nc1c(O)ccn(Cc2ccccc2Cl)c1=O)c1ccc(Cl)c(Cl)c1 (centres unmarked)

IC50 [2]: 0.011 µM
SMILES: COc1c(C)cc([C@H](CC(=O)O)NC(=O)Nc2c(O)c3c(n(Cc4ccccc4Cl)c2=O)CCC3)cc1C

IC50 (Table 6, 30 minutes at 37° C.): 0.005 µM
SMILES: COc1ccc2cc([C@H](CC(=O)O)NC(=O)Nc3c(O)c(C)cn(Cc4ccccc4Cl)c3=O)ccc2c1

IC50 (Table 4, 30 minutes at 37° C.): 1.5 µM
SMILES: Cc1cccc(Cn2cccc(NC(=O)N[C@@H](CC(=O)O)c3ccc4c(c3)OCO4)c2=O)c1

IC50 [2]: 0.004 µM
SMILES: CCOc1cccc(Cl)c1Cn1c2c(c(O)c(NC(=O)N[C@@H](CC(=O)O)c3cccc(CC(C)C)c3)c1=O)CCC2

IC50 (Table 6, 30 minutes at 37° C.): 0.07 µM
SMILES: COc1cc(Cn2cc(C)c(O)c(NC(=O)N[C@@H](CC(=O)O)c3ccc(C)cc3)c2=O)cc(OC)c1

IC50 [1]: 0.045 µM
SMILES: Cc1ccc([C@H](CC(=O)O)NC(=O)Nc2c(O)ccn(Cc3ccccn3)c2=O)cc1 [(3S)-3-[({[4-hydroxy-2-oxo-1-(pyridin-2-ylmethyl)-1,2-dihydropyridin-3-yl]amino}carbonyl)amino]-3-(4-methylphenyl)propanoic acid]

IC50 [1]: 0.025 µM
SMILES: Cc1ccc([C@H](CC(=O)O)NC(=O)Nc2c(O)ccn(Cc3ccccc3OC(F)(F)F)c2=O)cc1

IC50 [1]: 0.05 µM
SMILES: O=C(O)C[C@H](NC(=O)Nc1c(O)ccn(Cc2ccccc2Cl)c1=O)c1cc(F)cc(F)c1

IC50 [2]: 0.006 µM
SMILES: Cc1cn(Cc2ccccc2Cl)c(=O)c(NC(=O)N[C@@H](CC(=O)O)c2ccc(OC3CC3)cc2)c1O

IC50 [1]: 0.02 µM
SMILES: Cc1ccc([C@H](CC(=O)O)NC(=O)Nc2c(O)c(C)cn(Cc3ccc(Cl)cc3)c2=O)cc1

IC50 (Table 3, 30 minutes at 37° C.): 0.005 µM
SMILES: COc1cccc([C@H](CC(=O)O)NC(=O)Nc2c(O)ccn(Cc3ccccc3Cl)c2=O)c1 [(3S)-3-{[({1-[(2-chlorophenyl)methyl]-4-hydroxy-2-oxo-1,2-dihydro-3-pyridinyl}amino)carbonyl]amino}-3-[3-(methyloxy)phenyl]propanoic acid]

IC50 [2]: 2 µM
SMILES: COc1ccn(Cc2ccccc2Cl)c(=O)c1N(C)C(=O)N[C@@H](CC(=O)O)c1ccc(C)cc1

IC50 (Table 4, 30 minutes at 37° C.): 0.035 µM
SMILES: COc1ccc([C@H](CC(=O)O)NC(=O)Nc2c(O)ccn(Cc3ccccc3Cl)c2=O)c(C)c1C

IC50 (Table 3, 30 minutes at 37° C.): 0.015 µM
SMILES: Cc1ccc([C@H](CC(=O)O)NC(=O)Nc2c(O)cc(C)n(Cc3ccccc3Cl)c2=O)cc1 [(3S)-3-{[({1-[(2-chlorophenyl)methyl]-4-hydroxy-6-methyl-2-oxo-1,2-dihydro-3-pyridinyl}amino)carbonyl]amino}-3-(4-methylphenyl)propanoic acid]

IC50 [2]: 0.134 µM
SMILES: Cc1cn(Cc2ccccc2Cl)c(=O)c(NC(=O)NC(CC(=O)O)c2ccc(S(C)(=O)=O)cc2)c1O (centres unmarked)

IC50 [2]: 0.012 µM
SMILES: COc1cc([C@H](CC(=O)O)NC(=O)Nc2c(O)c(C)cn(Cc3ccccc3Cl)c2=O)cc(OC)c1C

IC50 [1]: 0.05 µM
SMILES: O=C(O)CC(NC(=O)Nc1c(O)ccn(Cc2ccccc2Cl)c1=O)c1cccnc1 (centres unmarked)

IC50 (Table 6, 30 minutes at 37° C.): 0.015 µM
SMILES: Cc1cn(Cc2ccccc2Cl)c(=O)c(NC(=O)N[C@@H](CC(=O)O)c2cccc(OCC(F)(F)F)c2)c1O

IC50 [1]: 0.003 µM
SMILES: CCOc1ccc([C@H](CC(=O)O)NC(=O)Nc2c(O)c(C)c(C)n(Cc3ccccc3Cl)c2=O)cc1OCC [(3S)-3-[({[1-(2-chlorobenzyl)-4-hydroxy-5,6-dimethyl-2-oxo-1,2-dihydropyridin-3-yl]amino}carbonyl)amino]-3-(3,4-diethoxyphenyl)propanoic acid]

IC50 (Table 6, 30 minutes at 37° C.): 0.01 µM
SMILES: Cc1cn(Cc2ccccc2Cl)c(=O)c(NC(=O)N[C@@H](CC(=O)O)c2cccc(C(F)(F)F)c2)c1O

IC50 (Table 4, 30 minutes at 37° C.): 2 µM
SMILES: CC(C)(C)c1ccc([C@H](CC(=O)O)NC(=O)Nc2cccn(Cc3cccs3)c2=O)cc1

IC50 (Table 6, 30 minutes at 37° C.): 0.025 µM
SMILES: Cc1ccc([C@H](CC(=O)O)NC(=O)Nc2c(O)ccn(Cc3cccc(S(C)(=O)=O)c3)c2=O)cc1

IC50 (Table 6, 30 minutes at 37° C.): 0.003 µM
SMILES: Cc1cn(Cc2ccccc2Cl)c(=O)c(NC(=O)N[C@@H](CC(=O)O)c2cccc(OC(C)C)c2)c1O

IC50 (Table 4, 30 minutes at 37° C.): 0.2 µM
SMILES: Cc1ccc([C@H](CC(=O)O)NC(=O)Nc2cccn(Cc3cccc(O)c3)c2=O)cc1

IC50 (Table 3, 30 minutes at 37° C.): 0.015 µM
SMILES: Cc1cc(C)cc([C@H](CC(=O)O)NC(=O)Nc2c(O)ccn(Cc3ccccc3Cl)c2=O)c1 [(3S)-3-{[({1-[(2-chlorophenyl)methyl]-4-hydroxy-2-oxo-1,2-dihydro-3-pyridinyl}amino)carbonyl]amino}-3-(3,5-dimethylphenyl)propanoic acid]

IC50 [1]: 0.003 µM
SMILES: COc1cc([C@H](CC(=O)O)NC(=O)Nc2c(O)ccn(Cc3ccccc3Cl)c2=O)cc(OC)c1C [(3S)-3-[({[1-(2-chlorobenzyl)-4-hydroxy-2-oxo-1,2-dihydropyridin-3-yl]amino}carbonyl)amino]-3-(3,5-dimethoxy-4-methylphenyl)propanoic acid]

IC50 [2]: 0.016 µM
SMILES: O=C(O)C[C@H](NC(=O)Nc1c(O)c2c(n(Cc3ccccc3Cl)c1=O)CCC2)c1cccc(F)c1

IC50 (Table 4, 30 minutes at 37° C.): 0.03 µM
SMILES: CCCS(=O)(=O)Nc1ccn(Cc2ccccc2Cl)c(=O)c1NC(=O)N[C@@H](CC(=O)O)c1ccc(C)cc1

IC50 (Table 4, 30 minutes at 37° C.): 1.4 µM
SMILES: COc1cccc([C@H](CC(=O)O)NC(=O)Nc2cccn(Cc3cccs3)c2=O)c1

IC50 [2]: 0.225 µM
SMILES: CCOc1c(Cl)ccc([C@H](CC(=O)O)NC(=O)Nc2c(O)c3c(n(Cc4ccccc4Cl)c2=O)CCC3)c1Cl

IC50 (Table 4, 30 minutes at 37° C.): 2 µM
SMILES: Cc1ccc([C@H](CC(=O)O)NC(=O)Nc2cccn(Cc3ccc(Cl)cc3)c2=O)cc1

IC50 [1]: 0.03 µM
SMILES: Cc1ccc([C@H](CC(=O)O)NC(=O)Nc2c(O)ccn(Cc3ccc(F)cc3F)c2=O)cc1

IC50 [1]: 0.006 µM
SMILES: O=C(O)C[C@H](NC(=O)Nc1c(O)ccn(Cc2ccccc2Cl)c1=O)c1cccc(OC(F)F)c1 [(3S)-3-[({[1-(2-chlorobenzyl)-4-hydroxy-2-oxo-1,2-dihydropyridin-3-yl]amino}carbonyl)amino]-3-[3-(difluoromethoxy)phenyl]propanoic acid]

IC50 (Table 6, 30 minutes at 37° C.): 0.003 µM
SMILES: Cc1cn(Cc2ccccc2Cl)c(=O)c(NC(=O)N[C@@H](CC(=O)O)c2ccc3c(ccn3C)c2)c1O
